Results from US20240390298A1, “CYCLOHEXYL BETA-HYDROXY ALKYL AMINES AND MEDICAL USES THEREOF” (ATROGI AB, priority 2021, published 2024).
Counter-ions that a name gives are not always drawn.

Experiments:
L6-myotubes [1] = experiment: Measurement of intracellular cAMP levels in differentiated L6 cells (alpha screen cAMP kit), compared to isoproterenol; format: cell-based; conditions: Rattus norvegicus, L6, 0.25 h, agonist 1×10^−5 M, 15 min, read-out: Biological example 2: intracellular cAMP levels, activity compared to that of isoproterenol
Procedure: (§1) L6-myoblasts were grown in Dulbecco's Modified Eagle's Medium (DMEM) containing 1 g/L glucose supplemented with 10% fetal bovine serum, 2 mM L-Glutamine, 50 U/mL penicillin, 50 μg/mL streptomycin and 10 mM HEPES. Cells were plated at 1×10^5 cells per mL in 24-well plates. After reaching 90% confluence the cells were grown in medium containing 2% FBS for 7 days where upon cells differentiated into myotubes.
Differentiated cells were serum-starved overnight and stimulated with an agonist, final concentration 1×10^−5 M, for 15 min in stimulation buffer (HBSS supplemented with 1% BSA, 5 mM HEPES and 1 mM IBMX, pH 7.4). The medium was aspirated and 100 μL of 95% EtOH was added to each well of the 24-well plate and cells were kept at −20° C. overnight. The EtOH was allowed to evaporate and 500 μL of lysis buffer (1% BSA, 5 mM HEPES and 0.3% Tween-20, pH 7.4) was added to each well. The plate was kept at −80° C. for 30 min and then at −20° C. until the day of detection when the samples were thawed. Intracellular cAMP levels were detected using an alpha screen cAMP kit (6760635D from Perkin Elmer). The activity for each compound is compared to that of isoproterenol.

L6-myotubes [2] = experiment: Glucose uptake in differentiated L6-myotubes (3H-2-deoxyglucose), compared to isoproterenol; format: cell-based; conditions: agonist 1×10^−5 M, 50 nM 3H-2-deoxyglucose; for Emax at 10 µM: read-out: Biological example 1: glucose uptake, activity compared to that of isoproterenol
Procedure: as §1
Differentiated L6-myotubes were serum-starved overnight in medium containing 0.5% fatty-acid free BSA and stimulated with an agonist, with a final concentration of 1×10^−5 M. After 1 h 40 min the cells were washed with warm glucose free medium or PBS twice and another portion of agonist was added to the glucose free medium. After 20 min the cells were exposed to 50 nM ^3H-2-deoxyglucose for 10 min before washed with ice cold glucose free medium or PBS three times and lysed with 0.2 M NaOH, 400 μL/well, for 1 h at 60° C. The cell lysate was mixed with 4 mL scintillation buffer (Emulsifier Safe, Perkin Elmer) and the radioactivity was detected in a β-counter (Tri-Carb 4810TR, Perkin Elmer). The activity for each compound is compared to that of isoproterenol.

With `O[C@@H](CNCCCC1CCC(OCc2ccccc2)CC1)c1cccc(F)c1` (stereo partly drawn) [Example 53, (R)-2-((3-((1r,4S)-4-(Benzyloxy)cyclohexyl)propyl)amino)-1-(3-fluoro-phenyl)ethan-1-ol] the Emax at 10 µM (L6-myotubes [1]) was < 25% and the Emax at 10 µM (L6-myotubes [2]) was 25 to 50%.

With `O[C@@H](CNCCCC1CCC(OCc2ccccc2)CC1)c1cncc(F)c1` (stereo partly drawn) [Example 54, (R)-2-((3-((1r,4S)-4-(Benzyloxy)cyclohexyl)propyl)amino)-1-(5-fluoro-pyridin-3-yl)ethan-1-ol] the Emax at 10 µM (L6-myotubes [1]) was < 25% and the Emax at 10 µM (L6-myotubes [2]) was 25 to 50%.

`O[C@@H](CNCCC[C@H]1CC[C@@H](OCc2ccccc2)CC1)c1cccc(F)c1` [Example 55, (R)-2-((3-((1s,4R)-4-(Benzyloxy)cyclohexyl)propyl)amino)-1-(3-fluoro-phenyl)ethan-1-ol] was tested, and the Emax at 10 µM (L6-myotubes [1]) was < 25% and the Emax at 10 µM (L6-myotubes [2]) was 25 to 50%.

In the case of `O[C@@H](CNCCC[C@H]1CC[C@@H](OCc2ccccc2)CC1)c1cncc(F)c1` [Example 56, (R)-2-((3-((1s,4R)-4-(Benzyloxy)cyclohexyl)propyl)amino)-1-(5-fluoro-pyridin-3-yl)ethan-1-ol], the Emax at 10 µM (L6-myotubes [1]) was < 25% and the “Biological example 1: glucose uptake, activity compared to that of isoproterenol” value (L6-myotubes [2]) was “+ +”.

In the case of `O[C@@H](CNCCC[C@H]1CC[C@H](O)CC1)c1cccc(F)c1` [Example 57, (1S,4r)-4-(3-(((R)-2-(3-Fluorophenyl)-2-hydroxyethyl)amino)propyl)-cyclohexan-1-ol], the Emax at 10 µM (L6-myotubes [1]) was < 25% and the “Biological example 1: glucose uptake, activity compared to that of isoproterenol” value (L6-myotubes [2]) was “+ +”.

For `O[C@@H](CNCCC[C@H]1CC[C@H](O)CC1)c1cncc(F)c1` [Example 58, (1S,4r)-4-(3-(((R)-2-(5-Fluoropyridin-3-yl)-2-hydroxyethyl)amino)-propyl)cyclohexan-1-ol], the Emax at 10 µM (L6-myotubes [1]) was < 25% and the Emax at 10 µM (L6-myotubes [2]) was 25 to 50%.

`O[C@@H](CNCCC[C@H]1CC[C@@H](O)CC1)c1cccc(F)c1` [Example 59, (1R,4s)-4-(3-(((R)-2-(3-Fluorophenyl)-2-hydroxyethyl)amino)propyl)-cyclohexan-1-ol] was tested, and the Emax at 10 µM (L6-myotubes [1]) was < 25% and the Emax at 10 µM (L6-myotubes [2]) was 25 to 50%.

For `O[C@@H](CNCCC[C@H]1CC[C@@H](O)CC1)c1cncc(F)c1` [Example 60, (1R,4s)-4-(3-(((R)-2-(5-Fluoropyridin-3-yl)-2-hydroxyethyl)amino)propyl)-cyclohexan-1-ol], the Emax at 10 µM (L6-myotubes [1]) was < 25% and the “Biological example 1: glucose uptake, activity compared to that of isoproterenol” value (L6-myotubes [2]) was “+ +”.

`CC(C)(CC[C@H]1CC[C@H](O)CC1)NC[C@H](O)c1cccc(F)c1` [Example 61, (1S,4r)-4-(3-(((R)-2-(3-Fluorophenyl)-2-hydroxyethyl)amino)-3-methyl-butyl)cyclohexan-1-ol] was tested, and the Emax at 10 µM (L6-myotubes [1]) was < 25% and the Emax at 10 µM (L6-myotubes [2]) was 25 to 50%.

In the case of `CC(C)(CCC1CCC(O)CC1)NC[C@H](O)c1ccccc1F` (stereo partly drawn) [Example 62, (1S,4r)-4-(3-(((R)-2-(2-Fluorophenyl)-2-hydroxyethyl)amino)-3-methyl-butyl)cyclohexan-1-ol], the Emax at 10 µM (L6-myotubes [1]) was < 25% and the “Biological example 1: glucose uptake, activity compared to that of isoproterenol” value (L6-myotubes [2]) was “+ + +”.

For `CC(C)(CC[C@H]1CC[C@H](O)CC1)NC[C@H](O)c1cncc(F)c1` [Example 63, (1S,4r)-4-(3-(((R)-2-(5-Fluoropyridin-3-yl)-2-hydroxyethyl)amino)-3-methylbutyl)cyclohexan-1-ol], the Emax at 10 µM (L6-myotubes [1]) was < 25% and the Emax at 10 µM (L6-myotubes [2]) was 25 to 50%.

For `CC(C)(CC[C@H]1CC[C@@H](O)CC1)NC[C@H](O)c1cccc(F)c1` [Example 64, (1R,4s)-4-(3-(((R)-2-(3-Fluorophenyl)-2-hydroxyethyl)amino)-3-methyl-butyl)cyclohexan-1-ol], the Emax at 10 µM (L6-myotubes [1]) was < 25% and the “Biological example 1: glucose uptake, activity compared to that of isoproterenol” value (L6-myotubes [2]) was “+ + +”.

In the case of `CC(C)(CC[C@H]1CC[C@@H](O)CC1)NC[C@H](O)c1ccccc1F` [Example 65, (1R,4s)-4-(3-(((R)-2-(2-Fluorophenyl)-2-hydroxyethyl)amino)-3-methyl-butyl)cyclohexan-1-ol], the Emax at 10 µM (L6-myotubes [1]) was 25 to 50% and the “Biological example 1: glucose uptake, activity compared to that of isoproterenol” value (L6-myotubes [2]) was “+ + +”.

`CC(C)(CC[C@H]1CC[C@@H](O)CC1)NC[C@H](O)c1cncc(F)c1` [Example 66, (1R,4s)-4-(3-(((R)-2-(5-Fluoropyridin-3-yl)-2-hydroxyethyl)amino)-3-methylbutyl)cyclohexan-1-ol dihydrochloride] was tested, and the Emax at 10 µM (L6-myotubes [1]) was < 25% and the “Biological example 1: glucose uptake, activity compared to that of isoproterenol” value (L6-myotubes [2]) was “+ +”.

`CC(=O)N[C@H]1CC[C@H](CNC[C@H](O)c2cccc(F)c2)CC1` [Example 67, N-((1R,4r)-4-((((R)-2-(3-Fluorophenyl)-2-hydroxyethyl)amino)methyl)-cyclohexyl)acetamide] was tested, and the Emax at 10 µM (L6-myotubes [1]) was < 25% and the Emax at 10 µM (L6-myotubes [2]) was 25 to 50%.

With `CC(=O)N[C@H]1CC[C@H](CNC[C@H](O)c2cncc(F)c2)CC1` [Example 68, N-((1R,4r)-4-((((R)-2-(5-Fluoropyridin-3-yl)-2-hydroxyethyl)amino)-methyl)cyclohexyl)acetamide] the Emax at 10 µM (L6-myotubes [1]) was < 25% and the Emax at 10 µM (L6-myotubes [2]) was 25 to 50%.

In the case of `O=C(N[C@H]1CC[C@H](CNC[C@H](O)c2cccc(F)c2)CC1)c1ccccc1` [Example 69, N-((1R,4r)-4-((((R)-2-(3-Fluorophenyl)-2-hydroxyethyl)amino)-methyl)cyclohexyl)benzamide], the Emax at 10 µM (L6-myotubes [1]) was < 25% and the “Biological example 1: glucose uptake, activity compared to that of isoproterenol” value (L6-myotubes [2]) was “+ + +”.

In the case of `O=C(N[C@H]1CC[C@H](CNC[C@H](O)c2cncc(F)c2)CC1)c1ccccc1` [Example 70, N-((1R,4r)-4-((((R)-2-(5-Fluoropyridin-3-yl)-2-hydroxyethyl)amino)methyl)-cyclohexyl)benzamide], the Emax at 10 µM (L6-myotubes [1]) was < 25% and the Emax at 10 µM (L6-myotubes [2]) was 25 to 50%.

In the case of `CS(=O)(=O)N[C@H]1CC[C@H](CNC[C@H](O)c2cccc(F)c2)CC1` [Example 71, N-((1R,4r)-4-((((R)-2-(3-Fluorophenyl)-2-hydroxyethyl)amino)methyl)-cyclohexyl)methanesulfonamide], the Emax at 10 µM (L6-myotubes [1]) was < 25% and the “Biological example 1: glucose uptake, activity compared to that of isoproterenol” value (L6-myotubes [2]) was “+ +”.

In the case of `CS(=O)(=O)N[C@H]1CC[C@H](CNC[C@H](O)c2cncc(F)c2)CC1` [Example 72, N-((1R,4r)-4-((((R)-2-(5-Fluoropyridin-3-yl)-2-hydroxyethyl)amino)methyl)-cyclohexyl)methanesulfonamide], the Emax at 10 µM (L6-myotubes [1]) was < 25% and the Emax at 10 µM (L6-myotubes [2]) was 25 to 50%.

In the case of `CC(=O)N[C@H]1CC[C@@H](CNC[C@H](O)c2cccc(F)c2)CC1` [Example 73, N-((1S,4s)-4-((((R)-2-(3-Fluorophenyl)-2-hydroxyethyl)amino)-methyl)cyclohexyl)acetamide], the Emax at 10 µM (L6-myotubes [1]) was < 25% and the “Biological example 1: glucose uptake, activity compared to that of isoproterenol” value (L6-myotubes [2]) was “+ +”.

For `CC(=O)N[C@H]1CC[C@@H](CNC[C@H](O)c2cncc(F)c2)CC1` [Example 74, N-((1S,4s)-4-((((R)-2-(5-Fluoropyridin-3-yl)-2-hydroxyethyl)amino)-methyl)cyclohexyl)acetamide], the Emax at 10 µM (L6-myotubes [1]) was < 25% and the Emax at 10 µM (L6-myotubes [2]) was 25 to 50%.

For `O=C(N[C@H]1CC[C@@H](CNC[C@H](O)c2cccc(F)c2)CC1)c1ccccc1` [Example 75, N-((1S,4s)-4-((((R)-2-(3-Fluorophenyl)-2-hydroxyethyl)amino)methyl)-cyclohexyl)benzamide], the Emax at 10 µM (L6-myotubes [1]) was < 25% and the “Biological example 1: glucose uptake, activity compared to that of isoproterenol” value (L6-myotubes [2]) was “+ +”.

With `O=C(N[C@H]1CC[C@@H](CNC[C@H](O)c2cncc(F)c2)CC1)c1ccccc1` [Example 76, N-((1S,4s)-4-((((R)-2-(5-Fluoropyridin-3-yl)-2-hydroxyethyl)amino)methyl)-cyclohexyl)benzamide] the Emax at 10 µM (L6-myotubes [1]) was < 25% and the “Biological example 1: glucose uptake, activity compared to that of isoproterenol” value (L6-myotubes [2]) was “+ +”.

In the case of `CS(=O)(=O)N[C@H]1CC[C@@H](CNC[C@H](O)c2cccc(F)c2)CC1` [Example 77], the Emax at 10 µM (L6-myotubes [1]) was < 25% and the “Biological example 1: glucose uptake, activity compared to that of isoproterenol” value (L6-myotubes [2]) was “+ +”.

With `CS(=O)(=O)N[C@H]1CC[C@@H](CNC[C@H](O)c2cncc(F)c2)CC1` [Example 78, N-((1S,4s)-4-((((R)-2-(5-Fluoropyridin-3-yl)-2-hydroxyethyl)amino)methyl)-cyclohexyl)methanesulfonamide] the Emax at 10 µM (L6-myotubes [1]) was < 25% and the “Biological example 1: glucose uptake, activity compared to that of isoproterenol” value (L6-myotubes [2]) was “+ +”.

`CC(C)(NC[C@H](O)c1cncc(F)c1)[C@H]1CC[C@H](N)CC1` [Example 79] was tested, and the Emax at 10 µM (L6-myotubes [1]) was < 25% and the Emax at 10 µM (L6-myotubes [2]) was < 25%.

In the case of `CC(=O)N[C@H]1CC[C@H](C(C)(C)NC[C@H](O)c2cncc(F)c2)CC1` [Example 81, N-((1R,4r)-4-(2-(((R)-2-(5-Fluoropyridin-3-yl)-2-hydroxyethyl)amino)-propan-2-yl)cyclohexyl)acetamide], the Emax at 10 µM (L6-myotubes [1]) was < 25% and the “Biological example 1: glucose uptake, activity compared to that of isoproterenol” value (L6-myotubes [2]) was “+ + +”.

`CC(C)(NC[C@H](O)c1cncc(F)c1)[C@H]1CC[C@H](NS(C)(=O)=O)CC1` [Example 83, N-((1R,4r)-4-(2-(((R)-2-(5-Fluoropyridin-3-yl)-2-hydroxyethyl)amino)-propan-2-yl)cyclohexyl)methanesulfonamide] was tested, and the Emax at 10 µM (L6-myotubes [1]) was < 25% and the Emax at 10 µM (L6-myotubes [2]) was 25 to 50%.
